Results from ChEMBL document CHEMBL3885861, “Open TG-GATES”.

Species: Rattus norvegicus
Experiment: Open TG-GATES - Regimen: Single
Type: toxicity, organism-based, Sprague-Dawley
Design: regimen Single, gender Male, age 6 weeks
Settings: in vivo, po, route gavage; for APTT / Bas / Eos / Fbg / Hb / Ht / Lym / MCH / MCHC / MCV / Mono / Neu / PT / Plat / RBC / Ret / WBC: tissue Blood; for KIDNEY_L / KIDNEY_R / KIDNEY_TOTAL: tissue Kidney; for LIVER: tissue Liver; for ALP / ALT / AST / CRE / DBIL / GLC / IP / K / LDH / Na / PL / RALB / TBIL / TC / TG / TP / gamma-GTP: tissue Plasma
[1] = 0 mg/kg, 3 h, dose level Control
[2] = 0 mg/kg, 6 h, dose level Control
[3] = 0 mg/kg, 9 h, dose level Control
[4] = 0 mg/kg, 24 h, dose level Control

## CC(C)Cc1ccc(C(C)C(=O)O)cc1 (stereo not drawn) [IBUPROFEN]
[1]
  TERMINAL_BW: 204.9 g
  APTT: 21.3 s
  Bas: 0%
  Eos: 1%
  Fbg: 277 mg/dL
  Hb: 13.2 g/dL
  Ht: 38.4%
  Lym: 72.8%
  MCH: 21.5 pg
  MCHC: 34.3%
  MCV: 62.7 fL
  Mono: 2%
  Neu: 23.6%
  PT: 15.8 s
  Plat: 113 x10_4/uL
  RBC: 612.8 x10_4/ul
  Ret: 7.9%
  WBC: 79.6 x10_2/uL
  KIDNEY_L: 0.9 g
  KIDNEY_R: 1 g
  KIDNEY_TOTAL: 1.9 g
  LIVER: 9.3 g
  ALP: 1578.8 IU/L
  ALT: 42.4 IU/L
  AST: 81.8 IU/L
  CRE: 0.2 mg/dL
  DBIL: 0 mg/dL
  GLC: 183 mg/dL
  IP: 8.2 mg/dL
  K: 4 meq/L
  LDH: 274 IU/L
  Na: 142 meq/L
  PL: 130.4 mg/dL
  RALB: 3 g/dL
  TBIL: 0.018 mg/dL
  TC: 72.6 mg/dL
  TG: 51 mg/dL
  TP: 5.4 g/dL
  gamma-GTP: 1.2 IU/L
[2]
  TERMINAL_BW: 200 g
  Bas: 0%
  Eos: 0.8%
  Fbg: 288.8 mg/dL
  Hb: 13.6 g/dL
  Ht: 40%
  Lym: 82.2%
  MCH: 21.7 pg
  MCHC: 34%
  MCV: 63.8 fL
  Mono: 1.8%
  PT: 15.9 s
  Plat: 118.6 x10_4/uL
  RBC: 627 x10_4/ul
  Ret: 7.8%
  WBC: 96.9 x10_2/uL
  KIDNEY_L: 0.9 g
  KIDNEY_R: 0.9 g
  KIDNEY_TOTAL: 1.9 g
  LIVER: 8.8 g
  ALP: 1383.4 IU/L
  ALT: 39.6 IU/L
  AST: 75.4 IU/L
  CRE: 0.2 mg/dL
  DBIL: 0 mg/dL
  GLC: 178 mg/dL
  IP: 8.9 mg/dL
  K: 4.2 meq/L
  LDH: 236.2 IU/L
  Na: 140.6 meq/L
  PL: 132.2 mg/dL
  RALB: 2.9 g/dL
  TBIL: 0.028 mg/dL
  TC: 73.2 mg/dL
  TG: 69.8 mg/dL
  TP: 5.4 g/dL
  gamma-GTP: 1.2 IU/L
[3]
  TERMINAL_BW: 198.1 g
  APTT: 23.4 s
  Bas: 0%
  Eos: 0.6%
  Fbg: 287 mg/dL
  Hb: 13 g/dL
  Ht: 38.7%
  Lym: 79.6%
  MCH: 21.6 pg
  MCHC: 33.8%
  MCV: 64 fL
  Mono: 1.8%
  Neu: 17%
  PT: 15.9 s
  Plat: 125.1 x10_4/uL
  RBC: 604.6 x10_4/ul
  Ret: 7.4%
  WBC: 76.6 x10_2/uL
  KIDNEY_L: 0.9 g
  KIDNEY_R: 0.9 g
  KIDNEY_TOTAL: 1.8 g
  LIVER: 8.2 g
  ALP: 1448.2 IU/L
  ALT: 36.6 IU/L
  AST: 73.2 IU/L
  CRE: 0.2 mg/dL
  DBIL: 0.006 mg/dL
  GLC: 178 mg/dL
  IP: 9.6 mg/dL
  K: 4.1 meq/L
  Na: 141.4 meq/L
  PL: 130.4 mg/dL
  RALB: 2.9 g/dL
  TBIL: 0.026 mg/dL
  TC: 72.8 mg/dL
  TG: 54.4 mg/dL
  TP: 5.5 g/dL
  gamma-GTP: 1.2 IU/L
[4]
  TERMINAL_BW: 213.6 g
  APTT: 20.3 s
  Bas: 0%
  Eos: 1.2%
  Fbg: 306 mg/dL
  Hb: 13.1 g/dL
  Ht: 38.6%
  Lym: 79.8%
  MCH: 21.4 pg
  MCHC: 33.8%
  MCV: 63.5 fL
  Mono: 3.2%
  Neu: 15.2%
  PT: 16.5 s
  Plat: 124.1 x10_4/uL
  RBC: 609.8 x10_4/ul
  Ret: 7.4%
  WBC: 117.7 x10_2/uL
  KIDNEY_L: 0.9 g
  KIDNEY_R: 0.9 g
  KIDNEY_TOTAL: 1.8 g
  LIVER: 10.1 g
  ALP: 1790.4 IU/L
  ALT: 47.2 IU/L
  AST: 77.2 IU/L
  CRE: 0.2 mg/dL
  DBIL: 0 mg/dL
  GLC: 198.8 mg/dL
  IP: 7.3 mg/dL
  K: 4.5 meq/L
  LDH: 235.4 IU/L
  Na: 141.6 meq/L
  PL: 145.8 mg/dL
  RALB: 3.1 g/dL
  TBIL: 0 mg/dL
  TC: 79.4 mg/dL
  TP: 5.5 g/dL
  gamma-GTP: 1.2 IU/L
60 mg/kg, 3 h, dose level Low
  TERMINAL_BW: 204.2 g
  APTT: 21.7 s
  Bas: 0%
  Eos: 0%
  Fbg: 294.6 mg/dL
  Ht: 39.3%
  Lym: 73.8%
  MCH: 21.4 pg
  MCHC: 33.7%
  MCV: 63.8 fL
  Mono: 2.2%
  Neu: 22.6%
  PT: 15.3 s
  RBC: 618.2 x10_4/ul
  Ret: 7.9%
  WBC: 101.5 x10_2/uL
  KIDNEY_L: 0.9 g
  KIDNEY_R: 0.9 g
  KIDNEY_TOTAL: 1.7 g
  LIVER: 9.2 g
  ALP: 1434.6 IU/L
  ALT: 47.8 IU/L
  AST: 79.4 IU/L
  CRE: 0.2 mg/dL
  DBIL: 0.002 mg/dL
  GLC: 177 mg/dL
  IP: 8.4 mg/dL
  K: 4.1 meq/L
  LDH: 256 IU/L
  Na: 141.2 meq/L
  PL: 144.8 mg/dL
  RALB: 3 g/dL
  TBIL: 0.028 mg/dL
  TC: 85.2 mg/dL
  TG: 64.2 mg/dL
  TP: 5.4 g/dL
  gamma-GTP: 1.4 IU/L
60 mg/kg, 6 h, dose level Low
  TERMINAL_BW: 205.3 g
  APTT: 23.2 s
  Bas: 0%
  Eos: 1%
  Fbg: 292.4 mg/dL
  Hb: 13.4 g/dL
  Ht: 39.3%
  Lym: 72.2%
  MCH: 21.6 pg
  MCHC: 34%
  MCV: 63.5 fL
  Mono: 2.6%
  PT: 16 s
  Plat: 116.1 x10_4/uL
  RBC: 619.4 x10_4/ul
  Ret: 8%
  WBC: 76.4 x10_2/uL
  KIDNEY_L: 0.9 g
  KIDNEY_R: 1 g
  KIDNEY_TOTAL: 1.9 g
  LIVER: 8.8 g
  ALP: 1432.6 IU/L
  ALT: 45 IU/L
  AST: 79.6 IU/L
  CRE: 0.1 mg/dL
  DBIL: 0.004 mg/dL
  GLC: 174.8 mg/dL
  IP: 9.6 mg/dL
  K: 4.5 meq/L
  LDH: 256.6 IU/L
  Na: 140 meq/L
  PL: 130.4 mg/dL
  RALB: 2.9 g/dL
  TBIL: 0.032 mg/dL
  TC: 72.6 mg/dL
  TG: 56 mg/dL
  TP: 5.1 g/dL
  gamma-GTP: 1.2 IU/L
60 mg/kg, 9 h, dose level Low
  TERMINAL_BW: 199.8 g
  Bas: 0%
  Eos: 0.6%
  Fbg: 275 mg/dL
  Hb: 12.8 g/dL
  Ht: 38.1%
  Lym: 76.6%
  MCH: 21.5 pg
  MCHC: 33.6%
  MCV: 64.1 fL
  Mono: 2.6%
  Neu: 19.2%
  PT: 15.8 s
  Plat: 116.8 x10_4/uL
  RBC: 594.6 x10_4/ul
  Ret: 8.2%
  WBC: 66.8 x10_2/uL
  KIDNEY_L: 1 g
  KIDNEY_R: 1 g
  KIDNEY_TOTAL: 1.9 g
  LIVER: 8.2 g
  ALP: 1788.8 IU/L
  ALT: 40.8 IU/L
  AST: 72.4 IU/L
  CRE: 0.1 mg/dL
  DBIL: 0.006 mg/dL
  GLC: 174.8 mg/dL
  K: 4.4 meq/L
  LDH: 208.4 IU/L
  Na: 139.8 meq/L
  RALB: 2.9 g/dL
  TBIL: 0.026 mg/dL
  TC: 67 mg/dL
  TG: 58.6 mg/dL
  TP: 5.3 g/dL
  gamma-GTP: 1 IU/L
60 mg/kg, 24 h, dose level Low
  TERMINAL_BW: 206.8 g
  APTT: 21.7 s
  Bas: 0%
  Eos: 1%
  Fbg: 309.8 mg/dL
  Ht: 40.6%
  Lym: 78.2%
  MCH: 21.6 pg
  MCHC: 34.1%
  MCV: 63.2 fL
  Mono: 3.2%
  Neu: 17%
  PT: 16.5 s
  Plat: 112 x10_4/uL
  RBC: 643.6 x10_4/ul
  Ret: 6.8%
  WBC: 119.2 x10_2/uL
  KIDNEY_L: 0.9 g
  KIDNEY_R: 0.9 g
  KIDNEY_TOTAL: 1.8 g
  LIVER: 9.8 g
  ALP: 1457.4 IU/L
  ALT: 46.6 IU/L
  AST: 76.8 IU/L
  CRE: 0.2 mg/dL
  DBIL: 0 mg/dL
  GLC: 183.6 mg/dL
  IP: 7.7 mg/dL
  K: 4.5 meq/L
  LDH: 274 IU/L
  Na: 141.6 meq/L
  PL: 142.2 mg/dL
  RALB: 3 g/dL
  TBIL: 0.004 mg/dL
  TC: 76.6 mg/dL
